Results published in ChEMBL document CHEMBL4680302, “Biologic-like In Vivo Efficacy with Small Molecule Inhibitors of TNFα Identified Using Scaffold Hopping and Structure-Based Drug Design Approaches” (J Med Chem, 2020).
pIC50: −log10 of the molar value. Values after ≈ are worked out from the molar mass of the structure shown. Active and inactive are the calls of the source. The calls are words filed in the database; no cut-off is given here.

What was measured:
[1] = Metabolic stability in rat liver microsomes assessed as half-life; format: ADME, Microsome
[2] = Clearance in mouse at 0.5 mg/kg, iv; format: ADME, organism-based; conditions: in vivo
[3] = Total AUC in mouse at 0.5 mg/kg, iv; format: ADME, organism-based; design: route intravenous, time AUCmax, dose 0.5 mg/kg; conditions: in vivo
[4] = target: Cytochrome P450 2D6 (Homo sapiens, UniProt P10635); test: Inhibition of recombinant CYP2D6 (unknown origin); format: ADME
[5] = Metabolic stability in human liver microsomes assessed as parent compound remaining after 10 mins; format: ADME, Microsome; conditions: read-out: Stabilty
[6] = test system: Mus musculus; test: Antiarthritic activity against anticollagen antibody-induced arthritis BALB/c mouse model assessed as reduction in LPS-induced IL-6 production administered orally twice daily followed by LPS stimulation after 6 hrs measured on day 12 by RT-PCR analysis; format: functional, organism-based; conditions: dose 2-10 mg/kg, time 12.0 day
[7] = test system: Mus musculus; test: Antiarthritic activity against anticollagen antibody-induced arthritis BALB/c mouse model assessed as reduction in LPS-induced CXCL10 levels administered orally twice daily followed by LPS stimulation after 6 hrs measured on day 12 by RT-PCR analysis; format: functional, organism-based; conditions: dose 2-10 mg/kg, time 12.0 day
[8] = Drug exposure in TNFalpha-induced C57BL/6J mouse at 25 mg/kg, po pretreated with compound prior to 1 hr of TNFalpha challenge and measured at 3 hrs post dose; format: ADME, organism-based; conditions: in vivo, read-out: Drug uptake
[9] = target: T1, Tumor necrosis factor receptor superfamily member 1A (Homo sapiens) (UniProt P19438); test: Binding affinity to TNFR1 (unknown origin) assessed as sedimentation coefficient (S) value at 25 uM by ultracentrifugation analysis (reference value: 2.2)
T1 sequence (whole entry): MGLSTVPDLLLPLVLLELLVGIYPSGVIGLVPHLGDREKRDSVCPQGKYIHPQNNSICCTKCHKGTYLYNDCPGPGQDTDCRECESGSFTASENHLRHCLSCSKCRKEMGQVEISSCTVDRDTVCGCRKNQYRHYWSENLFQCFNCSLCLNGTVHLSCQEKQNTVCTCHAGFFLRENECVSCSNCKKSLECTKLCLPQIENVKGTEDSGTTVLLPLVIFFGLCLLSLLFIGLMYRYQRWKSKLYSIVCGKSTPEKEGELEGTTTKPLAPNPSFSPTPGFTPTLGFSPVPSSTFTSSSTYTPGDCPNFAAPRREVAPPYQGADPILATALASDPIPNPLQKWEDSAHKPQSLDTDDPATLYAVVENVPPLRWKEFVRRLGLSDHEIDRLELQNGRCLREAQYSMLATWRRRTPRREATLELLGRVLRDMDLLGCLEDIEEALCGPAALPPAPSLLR

[10] = Permeability of the compound across basolateral to apical side of membrane in human Caco-2 cells; format: ADME, cell-based; conditions: read-out: permeability
[11] = test system: Mus musculus; test: Antiarthritic activity against anticollagen antibody-induced arthritis BALB/c mouse model assessed as reduction in LPS-induced IL-1beta production administered orally twice daily followed by LPS stimulation after 6 hrs measured on day 12 by RT-PCR analysis; format: functional, organism-based; conditions: dose 2-10 mg/kg, time 12.0 day
[12] = Terminal drug exposure in anticollagen antibody-induced arthritis BALB/c mouse model at 2 mg/kg, po BID followed by LPS stimulation after 6 hrs measured on day 12; format: ADME, organism-based; conditions: in vivo, time 12 day, read-out: Drug uptake
[13] = target: T2, Tumor necrosis factor (Homo sapiens, UniProt P01375); test: Inhibition of human recombinant His-tagged TNF-alpha-mediated E-selectin expression in HUVEC cells preincubated for 30 mins in presence of TNFalpha and measured after 3 hrs by flow cytometry analysis; format: cell-based
[14] = target: T1, Tumor necrosis factor receptor superfamily member 1A (Homo sapiens); test: Binding affinity to TNFR1 (unknown origin) assessed as apparent molecular weight of protein at 25 uM in presence of human TNFalpha by ultracentrifugation analysis (reference value: 27 kDa)
[15] = Protein binding in rat assessed as unbound fraction; format: ADME
[16] = test system: Mus musculus; test: Antiarthritic activity against anticollagen antibody-induced arthritis BALB/c mouse model assessed as reduction in LPS-induced TNFalpha production administered orally twice daily followed by LPS stimulation after 6 hrs measured on day 12 by RT-PCR analysis; format: functional, organism-based; conditions: dose 2-10 mg/kg, time 12.0 day
[17] = target: T1, Tumor necrosis factor receptor superfamily member 1A (Homo sapiens); test: Binding affinity to TNFR1 (unknown origin) assessed as apparent molecular weight of protein at 25 uM by ultracentrifugation analysis (reference value: 27 kDa)
[18] = Selectivity ratio of drug exposure in TNFalpha-induced C57BL/6J mouse at 25 mg/kg, po at 3 hrs post dose to IC50 for inhibition of human TNFalpha expressed in HEK-Blue-CD40L cells assessed as inhibition of NFkappaB activation by quanti-blue based SEAP assay
[19] = target: Cytochrome P450 2C9 (Homo sapiens, UniProt P11712); test: Inhibition of recombinant CYP2C9 (unknown origin); format: ADME
[20] = test system: Mus musculus; test: Antiinflammatory activity in TNFalpha-induced C57BL/6J mouse assessed as inhibition of serum IL-6 levels at 5 to 25 mg/kg, po pretreated with compound prior to 1 hr of TNFalpha challenge and measured 2 hrs post TBFalpha challenge by ELISA; format: functional, organism-based; conditions: dose 5-25 mg/kg, time 3.0 hrs
[21] = Solubility of compound; format: physicochemical
[22] = test system: Mus musculus; test: Antiarthritic activity against anticollagen antibody-induced arthritis BALB/c mouse model assessed as reduction in paw inflammation administered orally twice a day followed by LPS stimulation after 6 hrs measured until day 12; format: functional, organism-based; conditions: dose 2-10 mg/kg, time 12.0 day
[23] = Protein binding in mouse assessed as unbound fraction; format: ADME
[24] = Metabolic stability in mouse liver microsomes assessed as half-life; format: ADME, Microsome
[25] = Drug exposure in TNFalpha-induced C57BL/6J mouse at 5 mg/kg, po pretreated with compound prior to 1 hr of TNFalpha challenge and measured at 3 hrs post dose; format: ADME, organism-based; conditions: in vivo, read-out: Drug uptake
[26] = target: Cytochrome P450 3A4 (Homo sapiens, UniProt P08684); test: Inhibition of recombinant CYP3A4 (unknown origin) in presence of BFC as substrate; format: ADME
[27] = Selectivity ratio of drug exposure in anticollagen antibody-induced arthritis BALB/c mouse model at 2 mg/kg, po BID for 12 days to IC50 for inhibition of human TNFalpha expressed in HEK-Blue-CD40L cells assessed as inhibition of NFkappaB activation by quanti-blue based SEAP assay
[28] = target: T2, Tumor necrosis factor; test: Inhibition of exogenous human TNFalpha in HEK-Blue-CD40L cells assessed as reduction in TNF-alpha-induced NFkappaB activation incubated for 18 hrs by quanti-blue based SEAP assay; format: cell-based
[29] = Protein binding in human assessed as unbound fraction; format: ADME
[30] = target: Cytochrome P450 2C19 (Homo sapiens, UniProt P33261); test: Inhibition of recombinant CYP2C19 (unknown origin); format: ADME
[31] = Metabolic stability in mouse liver microsomes assessed as parent compound remaining after 10 mins; format: ADME, Microsome; conditions: read-out: Stabilty
[32] = test system: Mus musculus; test: Antiarthritic activity against anticollagen antibody-induced arthritis BALB/c mouse model assessed as reduction in LPS-induced cells expressing CD3 receptor administered orally twice daily followed by LPS stimulation after 6 hrs measured on day 12 by RT-PCR analysis; format: functional, organism-based; conditions: dose 2-10 mg/kg, time 12.0 day
[33] = Selectivity ratio of drug exposure in TNFalpha-induced C57BL/6J mouse at 5 mg/kg, po at 3 hrs post dose to IC50 for inhibition of human TNFalpha expressed in HEK-Blue-CD40L cells assessed as inhibition of NFkappaB activation by quanti-blue based SEAP assay

T2 sequence (P01375 whole entry): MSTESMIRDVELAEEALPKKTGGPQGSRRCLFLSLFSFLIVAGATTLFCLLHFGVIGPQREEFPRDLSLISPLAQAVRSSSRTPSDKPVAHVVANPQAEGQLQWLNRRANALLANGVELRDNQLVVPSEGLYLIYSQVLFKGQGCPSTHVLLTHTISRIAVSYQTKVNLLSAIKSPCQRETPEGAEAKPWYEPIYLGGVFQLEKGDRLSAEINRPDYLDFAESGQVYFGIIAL
Chain of Cytochrome P450 2C19 (P33261 whole entry): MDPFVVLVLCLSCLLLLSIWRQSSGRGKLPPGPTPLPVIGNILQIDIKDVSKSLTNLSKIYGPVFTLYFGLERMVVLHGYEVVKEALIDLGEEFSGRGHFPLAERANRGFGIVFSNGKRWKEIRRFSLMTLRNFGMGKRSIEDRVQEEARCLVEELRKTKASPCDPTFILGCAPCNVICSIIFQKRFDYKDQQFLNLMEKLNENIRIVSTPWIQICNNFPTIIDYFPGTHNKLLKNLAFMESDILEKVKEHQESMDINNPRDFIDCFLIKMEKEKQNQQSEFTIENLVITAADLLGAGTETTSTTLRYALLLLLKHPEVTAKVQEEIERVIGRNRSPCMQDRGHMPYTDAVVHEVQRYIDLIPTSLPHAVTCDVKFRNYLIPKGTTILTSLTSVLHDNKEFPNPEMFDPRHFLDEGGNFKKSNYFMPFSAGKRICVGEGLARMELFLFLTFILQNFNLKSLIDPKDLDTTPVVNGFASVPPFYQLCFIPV
Chain of Cytochrome P450 3A4 (P08684 whole entry): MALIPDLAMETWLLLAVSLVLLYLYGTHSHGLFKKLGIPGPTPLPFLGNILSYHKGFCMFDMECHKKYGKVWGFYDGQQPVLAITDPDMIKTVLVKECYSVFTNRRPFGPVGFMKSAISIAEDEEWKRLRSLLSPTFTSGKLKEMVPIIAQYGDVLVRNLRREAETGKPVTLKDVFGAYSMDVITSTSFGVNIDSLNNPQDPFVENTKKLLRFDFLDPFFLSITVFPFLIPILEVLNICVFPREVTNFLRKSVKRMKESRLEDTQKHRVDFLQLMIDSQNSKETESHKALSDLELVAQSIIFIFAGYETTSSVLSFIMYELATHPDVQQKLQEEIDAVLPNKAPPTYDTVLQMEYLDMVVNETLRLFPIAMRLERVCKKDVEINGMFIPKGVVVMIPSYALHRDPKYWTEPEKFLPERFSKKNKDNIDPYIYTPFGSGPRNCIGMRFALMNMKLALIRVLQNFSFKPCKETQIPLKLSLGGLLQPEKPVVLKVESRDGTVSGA
Chain of Cytochrome P450 2C9 (P11712 whole entry): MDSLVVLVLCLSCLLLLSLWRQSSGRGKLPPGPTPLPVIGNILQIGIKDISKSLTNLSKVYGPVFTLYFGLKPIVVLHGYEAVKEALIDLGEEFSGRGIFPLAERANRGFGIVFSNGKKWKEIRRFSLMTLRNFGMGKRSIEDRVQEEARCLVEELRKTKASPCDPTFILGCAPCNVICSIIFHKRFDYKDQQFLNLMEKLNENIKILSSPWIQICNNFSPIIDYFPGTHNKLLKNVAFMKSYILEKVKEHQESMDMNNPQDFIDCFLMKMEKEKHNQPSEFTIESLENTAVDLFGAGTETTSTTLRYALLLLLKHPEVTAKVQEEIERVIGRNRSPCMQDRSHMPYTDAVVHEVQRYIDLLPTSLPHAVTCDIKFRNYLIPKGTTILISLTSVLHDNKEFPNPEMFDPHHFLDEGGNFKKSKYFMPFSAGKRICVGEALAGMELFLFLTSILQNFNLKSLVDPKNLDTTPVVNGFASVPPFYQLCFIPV
Chain of Cytochrome P450 2D6 (P10635 whole entry): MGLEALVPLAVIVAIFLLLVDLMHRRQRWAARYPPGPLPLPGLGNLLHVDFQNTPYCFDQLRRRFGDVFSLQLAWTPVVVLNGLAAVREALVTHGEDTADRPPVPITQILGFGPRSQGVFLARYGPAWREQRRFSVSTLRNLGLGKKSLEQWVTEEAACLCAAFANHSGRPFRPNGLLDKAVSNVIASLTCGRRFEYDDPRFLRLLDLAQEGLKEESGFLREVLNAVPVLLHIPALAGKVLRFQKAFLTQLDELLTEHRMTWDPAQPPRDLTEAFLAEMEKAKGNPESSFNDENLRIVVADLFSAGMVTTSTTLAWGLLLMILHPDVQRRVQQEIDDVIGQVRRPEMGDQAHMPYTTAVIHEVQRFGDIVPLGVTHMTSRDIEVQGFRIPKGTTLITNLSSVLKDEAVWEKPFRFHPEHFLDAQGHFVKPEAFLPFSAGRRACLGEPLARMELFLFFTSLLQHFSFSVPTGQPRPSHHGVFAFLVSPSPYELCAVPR

half-life [1]: 1.15 h | clearance [2]: 6.6 mL/min/kg | AUC [3]: 2.5 µM·h | pIC50 [4]: < 4.70 | remaining at 10 min [5]: 95% | concentration at 3 h [8]: 1860 nM | Papp B→A [10]: 8 ×10⁻⁶ cm/s | concentration at 288 h [12]: 340 nM | Fu [15]: 0.4% | pIC50 [19]: 5.70 | solubility [21]: 1 µg/mL (≈ 2.02 µM) | Fu [23]: 0.6% | half-life [24]: 1.3 h | concentration at 3 h [25]: 470 nM | pIC50 [26]: < 4.70 | Fu [29]: 0.35% | pIC50 [30]: < 4.70 | remaining at 10 min [31]: 86%
SMILES: Cc1nc2cc(F)c(-c3cnc(C(C)(C)O)nc3)nc2c(N[C@H](C)c2cc(C#N)ccc2F)c1Cl
Activity [6]: Dose-dependent effect | Activity [7]: Dose-dependent effect | Activity index [9]: 2.2 | Activity [11]: Dose-dependent effect | pIC50 [13]: 7.52 | Activity [14]: 28 kDa | Activity [16]: Dose-dependent effect | Activity [17]: 27 kDa | Selectivity ratio [18]: 7 | Activity [20]: Active | Activity [22]: Dose-dependent effect | Ratio [27]: 1 | pIC50 [28]: 7.57 | Activity [32]: Dose-dependent effect | Selectivity ratio [33]: 2
